Experimental findings from patent publication US12558358B2 (UNIVERZITA PALACKEHO V OLOMOUCI, priority 2019, dated 2026) are described below.

The test system of data set [1] is U2OS cells transduced by transcriptional circadian reporter mBmal1-Luc. As to the kind of experiment: Circadian rhythm period, U2OS cells with Bmal1-Luc reporter (Example 1). It is filed as cell-based, human. The note with it: luminescence 144 hours, cosinor analysis, FIG. 1. The method, then: Human osteosarcoma U2OS cells were grown in standard DMEM with 10% fetal calf serum. U2OS cells were transduced with lentiviral particles containing the reporter pLV6-Bmal1-Luc (S. Brown, Addgene plasmid #68833) and selected under Blasticidin. The cell line was clonally expanded and a single monoclonal cell line was used for further experiments. Cells were cultured in a 384-well plate in growth medium to 90+% confluence. Test compound or vehicle (DMSO) was applied to recording medium with 100 U/ml penicillin, 100 μg/ml streptomycin, 1× GlutaMAX (ThermoFisher, Waltham, MA, USA), 10% fetal calf serum (Sigma) and 0.1 mM Luciferin-EF (Promega Madison, WI, USA). Luminescence was recorded every hour for an additional 144 hours in Luminoskan Ascent (ThermoFisher). Circadian rhythm analysis was performed using cosinor analysis.

For data set [2], the system named is cancer cell line A549. As to the kind of experiment: Resazurin viability of A549 cells, pretreatment plus antineoplastics (Example 7). It is filed as cell-based, human. The note with it: pretreatment 100 μM, antineoplastics 3.3 μM, 72 incubation, FIG. 7. The method, then:
Human cancer cell line A549 was maintained in standard cultivation medium DMEM with 10% fetal bovine serum. 1000 cells were seeded into the wells of 384-well plate in 30 microliters of RPMI medium. After 24 hours, dexamethasone (final concentration 100 nM) was added in order to synchronize circadian oscillator together with N-(furan-2-ylmethyl)-7H-purin-6-amin (final concentration 100 μM) or DMSO vehicle. After 12 hours, DMSO vehicle or the evaluated antineoplastics (the final concentration 3.3 μM) were added. The compounds were dosed by ECHO system, the DMSO solutions were 1000-times concentrated. After 72 incubation, 1000-times concentrated solution of resazurin in DMSO to a final concentration of 0.0125 mg/ml was added. Fluorescence was measured after 3-hour incubation. […] An equivalent cytotoxic effect can be therefore achieved by an application of lower dose of antineoplastics.
A general note: The colour change of resazurin is a common sign of viable cells or microbes.

Data set [3] concerns skin fibroblasts BJ. It is filed as cell-based. The note with it: human, 72 h. As to the method:
(§1) It is used for viability testing of eukaryotic cells. The effect of the compounds in several concentrations (maximum concentration of 100 microM and 3 three-fold dilutions) on viability of skin fibroblasts BJ and retinal epithelium cells ARPE-19 was evaluated after 72 hour treatment. The cells were maintained in standard cultivation medium DMEM with 10% fetal bovine serum. 5000 cells were seeded into 96-well plates 24 hours prior to the addition of test compound. DMSO vehicle was used as a negative control. After 72 hours, 1000-times concentrated solution of resazurin in DMSO was added to the cells zo the final concentration of 0.0125 mg/ml. Fluorescence (ex=570 nm, em=610 nm) was measured after 1 hour (ARPE-19) or 3 hours (BJ) of incubation. IC50 values were calculated from dose response curves using drc library for R programming environment.

The subject of data set [4] is retinal epithelium cells ARPE-19. It is filed as cell-based. The note with it: human, 72 h. The method, then:
as §1

The nature of data set [5]: in vitro. It is filed as in vitro ADME. The following applies: PAMPA, pH 7.4. As to the method:
(§2) This system is further referred to as RF-MS. Preparation of the lyophilized samples for the analysis is described in the sections dedicated to the individual methods. Lyophilized samples were dissolved in the mobile phase (95% water, 5% acetonitrile, 0.1% formic acid) with respective internal standards. The dissolved samples were aspired directly from 96-well plates into a 10 μL sample loop and passed through a C4 cartridge (Agilent Technologies) with solvent A (95% water, 0.01% formic acid, 5% acetonitrile) at a flow rate of 1.5 mL/minute for 3 seconds. After the desalting step, the analyte retained on the cartridge was eluted with solvent B (95% acetonitrile, 5% 0.01% formic acid) to the mass spectrometer at a flow rate of 0.4 mL/minute for 7 seconds. Mass spectrometry was carried out using electrospray ionization in the positive ion mode. Daughter ion peaks were identified using a multiple-reaction monitoring protocol.
The parallel artificial membrane permeability assay (PAMPA) was performed using the Millipore MultiScreen filter MultiScreen-IP Durapore 0.45 μm plates and receiver plates (Merck Millipore) according to the manufacturer's protocol PC040EN00. […]
Calculations: The relative permeability log Pe was calculated as log Pe=log{Cx−ln(1−drugA/drugE)}, where C=(VA×VD)/{(VD+VA)×A×T}. […]
Background: In PAMPA a lipid-coated filter parts donor from acceptor wells.

Data set [6] can be described thus: in vitro. It is filed as in vitro ADME. As to the method:
as §2
Caco-2 (American Tissue Type Collection) a MDR1-MCDK (Netherlands Cancer Institute) were cultured in DMEM medium with 10% fetal bovine serum. […]
Calculations: The apparent permeability coefficient was calculated as Papp=(dQ/dt)/(C0×A), where dQ/dt is the rate of permeation of the drug across the cell monolayer, C0 is the donor compartment concentration at time t=0 and A is the area of the cell monolayer. […]

Broadly, the IC10 is the point of the concentration-response curve where the effect stands at 10%. In general, Papp refers to a coefficient for how fast a substance crosses the barrier. High values mean fast passage, low ones slow passage. With `c1coc(CNc2ncnc3nc[nH]c23)c1` [N-(furan-2-ylmethyl)-7H-purin-6-amine], in data set [1], the circadian rhythm period result is listed as “extends the circadian rhythm period”. Further, the “activity of antineoplastics on A549 viability after pretreatment” value in data set [2] is recorded as “increases activity of antineoplastics”. Further, the concentration for an effect of 10% (IC10) in data set [3] and in data set [4] was more than 100 µM in each case. Also, the Papp at 18 h, 20 AM in data set [5] is 5.01 ×10⁻⁶ cm/s. This compound registered an apparent permeability (Papp) at 1 h, 10 μM in data set [6] (dog, MDCK-MDR1, pH 7.4) of 315 ×10⁻⁶ cm/s. Also, the apparent permeability (Papp) at 2 h, 10 μM in data set [6] (human, Caco-2, pH 7.4) was found to be 76 ×10⁻⁶ cm/s.
